In US20200247815A1, “PYRAZOLYL-CONTAINING TRICYCLIC DERIVATIVE, PREPARATION METHOD THEREFOR AND USE THEREOF” (Jiangsu Hansoh Pharmaceutical Group Co., Ltd., priority 2017, published 2020):

Experiments:
[1] = system: pancreatic cancer tumor cell Mia Paca 2; assay: Inhibition of tumor cell proliferation (CellTiter-Glo); format: cell-based; details: Homo sapiens, Miapaca-2 cell, 3-7 days
Method: The object of this test example is to determine the inhibition effect of the present compound on tumor cell proliferation activity. The inhibition activity of the compound on tumor cell proliferation was determined by CellTiter-Glo method, and the half inhibitory concentration IC50 of the compound for inhibiting cell proliferation activity was obtained, 50-100 μL of tumor cell suspension was inoculated in a 96-well cell culture plate with a density of 1˜5*10^4 cells/ml. The plate was incubated in an incubator for 16˜24 hours (37° C., 5% CO2). Solutions of test compounds at different concentrations obtained by gradient dilution were added to the cells in the plate. The plate was incubated in an incubator for 3-7 days (37° C., 5% CO2), 50˜100 μL of CellTiter-Glo reagent was added to each well. The plate was shaked for 10 minutes, and left to stand at room temperature for 10 minutes. The value of the chemiluminescence signal was determined by a microplate reader. The inhibition rate was calculated from the value of the chemiluminescence signal. IC50 of the compound was obtained by curve fitting based on the inhibition rate at different concentrations.
The inhibition effect of the present compound on pancreatic cancer tumor cell Mia Paca 2 proliferation activity was determined by the test, and the obtained IC50 value is shown in Table 2.

[2] = system: human pancreatic cancer cell MiaPaca 2 xenograft (CDX) model; assay: Tumor inhibition experiment in MiaPaca 2 xenograft model; format: in vivo, BALB/c nude mice
Method: BALB/c nude mice were used as test animals. In vivo pharmacodynamic test was carried out in human pancreatic cancer cell MiaPaca 2 xenograft (CDX) model to evaluate the antitumor effect of the test compound.
MiaPaca 2 cells were obtained from the cell bank. After recovery, the cells were added to a DMEM medium (containing 10% FBS, 1% Glu and 1% P/S), and incubated in the CO2 incubator (the incubator temperature was 37° C., and the CO2 concentration was 5%). The cells were subjected to passage after spreading 80-90% of the bottom of the culture flask. After passage, the cells were incubated in the CO2 incubator. This process was repeated until the number of cells met the required by in vivo pharmacological inoculation. Cells in log phase were collected, and counted by the automatic cell counter. The cells were re-suspended with PBS and Matrigel (1:1 by volume) based on the counting results to obtain a cell suspension (cell density: […]), which was placed in an ice box.
Female BALB/c nude mice (6-8 weeks old, body weight: 18-22 grams) were used as test animals. The mice were maintained in individually ventilated cages (5 mice per cage) in a special pathogen-free environment. All cages, padding and water were disinfected before use. All animals had free access to standard certified commercial laboratory diets. The nude mice were labeled with disposable ear tags before the experiment. The skin of the inoculated area was sterilized with 75% medical alcohol before inoculation. Each mouse was subcutaneously inoculated with 0.1 ml (containing 8*10^6 cells) of MiaPaca 2 tumor cells on the right back. Administration was started when the average tumor volume reached 100-200 mm^3. The test compound was administrated intragastrically daily. The tumor volume (mm^3) was measured with vernier caliper twice a week. Calculation formula: V=0.5*D*d*d, wherein D and d refer to the major and minor diameter of the tumor, respectively. The anti-tumor efficacy was determined by dividing the average tumor increase volume of compound-treated animals by the average tumor increase volume of untreated animals. Calculation formula of tumor inhibition rate: TGI (%)=1−[(Vt−V0)administration group/(Vt−V0)solvent control group]*100%. All animals were euthanized after the experiment.

hERG potassium channel = molecular target: T1, hERG potassium channel (Homo sapiens, UniProt Q12809); assay: hERG potassium channel inhibition activity test (Qpatch, CHO-hERG cells); format: cell-based
T1 construct: expressed in transfected cells; host or cells: CHO-hERG cells
T1 sequence (Q12809 whole entry): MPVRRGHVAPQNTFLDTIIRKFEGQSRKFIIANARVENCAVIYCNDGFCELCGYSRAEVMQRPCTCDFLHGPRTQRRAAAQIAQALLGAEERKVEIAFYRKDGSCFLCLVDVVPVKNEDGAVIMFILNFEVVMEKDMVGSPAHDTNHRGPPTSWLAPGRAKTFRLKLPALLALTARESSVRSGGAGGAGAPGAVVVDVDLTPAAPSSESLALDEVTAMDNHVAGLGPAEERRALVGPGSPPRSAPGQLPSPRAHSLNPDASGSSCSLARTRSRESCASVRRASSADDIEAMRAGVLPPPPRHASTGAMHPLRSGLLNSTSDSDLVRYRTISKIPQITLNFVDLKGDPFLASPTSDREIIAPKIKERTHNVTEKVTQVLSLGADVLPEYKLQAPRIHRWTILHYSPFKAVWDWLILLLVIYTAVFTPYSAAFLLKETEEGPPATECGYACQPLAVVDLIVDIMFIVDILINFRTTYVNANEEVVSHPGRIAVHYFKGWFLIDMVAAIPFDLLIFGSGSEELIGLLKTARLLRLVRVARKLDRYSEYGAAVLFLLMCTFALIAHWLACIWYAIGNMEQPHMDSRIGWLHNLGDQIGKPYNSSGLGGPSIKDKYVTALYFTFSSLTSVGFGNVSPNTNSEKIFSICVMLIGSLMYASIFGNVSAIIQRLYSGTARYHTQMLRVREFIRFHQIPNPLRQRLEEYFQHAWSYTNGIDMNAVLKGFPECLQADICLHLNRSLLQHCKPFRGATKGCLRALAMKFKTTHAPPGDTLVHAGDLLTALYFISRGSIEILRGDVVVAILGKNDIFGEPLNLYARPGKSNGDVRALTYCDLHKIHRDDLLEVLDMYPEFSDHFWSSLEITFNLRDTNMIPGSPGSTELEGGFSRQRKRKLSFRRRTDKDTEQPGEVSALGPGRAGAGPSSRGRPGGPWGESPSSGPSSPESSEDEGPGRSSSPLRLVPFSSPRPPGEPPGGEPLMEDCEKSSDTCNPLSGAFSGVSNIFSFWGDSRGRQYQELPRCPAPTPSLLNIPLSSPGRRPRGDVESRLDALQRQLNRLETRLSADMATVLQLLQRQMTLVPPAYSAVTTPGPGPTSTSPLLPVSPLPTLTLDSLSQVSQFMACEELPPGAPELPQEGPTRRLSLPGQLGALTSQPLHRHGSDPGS
Method: 4.1.1 CHO-hERG cells were cultured in a 175 cm2 culture flask. After the cell density reached 60˜80%, the culture solution was removed. The cells were washed with 7 mL of PBS once, and dissociated with 3 mL of Detachin.
4.1.2 After completion of dissociation, the cells were neutralized with 7 mL of culture solution. The solution was centrifuged, and the supernate was removed. The cells were resuspended in 5 mL of culture solution. The cell indensity is ensured as […].
Single cell sealing impedance and formation of whole-cell mode were automatically performed by Qpatch instrument. After obtaining the whole-cell recording mode, the cell was clamped at −80 mV. The cell first underwent pre-voltage of −50 mV for 50 msec, then underwent depolarization stimulation at +40 mV for 5 sec, and then underwent repolarization at −50 mV for 5 sec. and then the voltage returned to −80 mV. The cell underwent the stimulation at the voltage every 15 sec, and the data were recorded for 2 min, then extracellular fluid was administrated, and then the data were recorded for 5 min. Then, the administration process begun. The concentration of the test compound started from the lowest concentration, each test concentration was administrated for 2.5 min. At least three cells were tested for each concentration.
4.4.1 20 mM mother liquor of the compound was diluted with extracellular fluid, 5 uL of 20 mM mother liquor of the compound was added with 2495 uL of extracellular fluid to obtain a concentration of 40 uM (500-fold dilution). The solution was subjected to a 3-fold serial dilution with extracellular fluid containing 0.2% DMSO to obtain a required final concentration.
This concentration of DMSO had no effect on hERG potassium channel.
The experimental data was analyzed by XLFit software.

[3] = 50 mg/kg QD × 16 d, intragastric, Day 16
[4] = 50 mg/kg BID × 3 w, intragastric
[5] = 100 mg/kg QD × 3 w, intragastric

Row | SMILES | IC50 [1] [nM] | Tumor volume (Mean ± SD) Day 0 ([2]; 50 mg/kg QD × 16 d, intragastric) [mm^3] | TGI Day 16 [2, 3] [%] | Tumor volume (Mean ± SD) Day 16 [2, 3] [mm^3] | ΔT/ΔC Day 16 [2, 3] [%] | Inhibition of growth of xenograft ([2]; 50 mg/kg QD, continuous oral administration for 16 days) | Inhibition effect on cardiac hERG potassium channel (hERG potassium channel) | IC50 (hERG potassium channel; CHO-hERG cells, highest test concentration 40 uM, read-out: hERG (inhibition effect on hERG current)) [nM] | Tumor volume (Mean ± SD) Day 0 [2, 4] [mm^3] | TGI Day 21 [2, 4] [%] | Tumor volume (Mean ± SD) Day 21 [2, 4] [mm^3] | ΔT/ΔC Day 21 [2, 4] [%] | Inhibition of growth of xenograft ([2]; 50 mg/kg BID, continuous oral administration for 21 days) | Tumor volume (Mean ± SD) Day 0 [2, 5] [mm^3] | TGI Day 21 [2, 5] [%] | Tumor volume (Mean ± SD) Day 21 [2, 5] [mm^3] | ΔT/ΔC Day 21 [2, 5] [%] | Inhibition of growth of xenograft ([2]; 100 mg/kg QD, continuous oral administration for 21 days)
1 | C[C@@H](NC(=O)c1cc2cc3c(-c4ccncc4)n[nH]c3cc2[nH]1)c1ccccc1 [Example 1, (R)—N-(1-phenylethyl)-3-(pyridin-4-yl)-1,7-dihydropyrrolo[3,2-f]indazole-6-carboxamide] | 123 | 154 ± 29 | 86.63 | 214 ± 97 | 13.37 | significantly inhibit the growth | – | – | – | – | – | – | – | – | – | – | – | –
2 | C[C@@H](NC(=O)c1nc2cc3c(-c4ccncc4)n[nH]c3cc2[nH]1)c1ccccc1 [Example 2, (R)—N-(1-phenylethyl)-3-(pyridin-4-yl)-1,7-dihydroimidazo[4,5-f]indazole-6-carboxamide] | 69.1 | – | – | – | – | – | no inhibition effect | > 40000 | 156 ± 27 | 85.07 | 253 ± 32 | 14.93 | significantly inhibit the growth | 156 ± 24 | 91.14 | 214 ± 104 | 8.86 | significantly inhibit the growth
